{"source": "patent US11058653B2", "about": "“Compositions comprising desaminotyrosine and uses thereof to enhance type I interferon stimulation” (Washington University, priority 2016, dated 2021)", "key": {"[1]": {"system": "type I IFN response elements (ISREs)", "experiment": "ISRE luciferase reporter metabolic screen (2fTGH-ISRE-CBG99 cell line)", "type": "cell-based", "excerpt": "Therefore, a library of microbiome associated metabolites was screened for the ability to enhance type I IFN signaling.^21 A reported cell line that harbors multiple type I IFN response elements (ISREs) driving firefly luciferase was utilized.^22 Each metabolite was screened for the ability to enhance reporter activity in the background of type I IFN or polyIC (an inducer of type I IFN production) treatment (schematic FIG. 4A). Using this methodology, 11 metabolites were identified that increased reporter activity following polyIC co-stimulation (FIG. 4B) and 5 metabolites that increased ISRE reporter activity with type I IFN co-stimulation (FIG. 10).\nMetabolites were screened using the 2fTGH-ISRE-CBG99 luciferase cell line.^22 The day before screening the reporter cells were plated at 3×10^4 cell/well in 96 well plates. […] Luciferase was measured at 14 hours post-treatment for IFN-β, and 24 hours post-treatment for poly(IC) using the […] […] Plates were read on a luminometer (1 second read time) using the CYTATION 5 (BioTek). For secondary validation, cells were treated with 1000 μM, 100 μM, 10 μM, and 1 μM of metabolite and 5 or 50 U/ml of IFN-β (PBL Assay Science) or 2.5 or […] of poly(IC) (Amersham Biosciences) and measured as above."}, "[2]": {"system": "type I IFN activity", "type": "in vivo, mice", "details": "after 2-week antibiotic course; desaminotyrosine orally plus polyIC injections vs polyIC alone"}, "[3]": {"system": "H1N1 influenza strain PR8", "experiment": "Influenza infection of mice, strain PR8", "type": "in vivo", "details": "mice infected with PR8", "excerpt": "(§1) FIG. 19A, FIG. 19B, FIG. 19C, FIG. 19D, FIG. 19E, FIG. 19F, FIG. 19G, FIG. 19H, FIG. 19I, FIG. 19J, FIG. 19L, FIG. 19K, FIG. 19M, and FIG. 19N (FIG. 19A and FIG. 19B) Representative images of influenza H1N1 staining by polyclonal antibody on lung cross sections from wild-type (WT) (FIG. 19A) and Irgm1^−/− (FIG. 19B) mice 6 days postinfection (representative images from 5-6 mice per group from two experiments). Bar=200 μm. (FIG. 19C and FIG. 19D) Stool (FIG. 19C) and serum (FIG. 19D) desaminotyrosine levels measured by mass spectroscopy in wild-type mice mock or treated with two weeks of antibiotics and then treated with 200 mM desaminotyrosine in drinking water for one week (n=5-13 per group from two experiments). (FIG. 19E, FIG. 19F, FIG. 19G, and FIG. 19H) Kaplan-Meier survival analysis of nonantibiotic and antibiotic-treated wild-type mice given control or desaminotyrosine in drinking water and then infected with H1N1 influenza strains PR8 (FIG. 19E and FIG. 19F) or Cali/09 (FIG. 19G and FIG. 19H) (n=10 mice per group). *p<0.05 by Mantel-Cox test. (FIG. 19I) Kaplan-Meier survival analysis of wild-type mice treated with indicated antibiotic(s) and then infected with influenza (n=20 mice per group from two experiments). *p<0.05, **p<0.01, and ****p<0.0001 compared to mock treated infected mice by Mantel-Cox test with Bonferroni-corrected threshold. […]"}, "[4]": {"system": "H1N1 influenza strain California/09", "experiment": "Influenza infection of mice, strain California/09", "type": "in vivo", "details": "mice infected with California/09", "excerpt": "as §1"}, "[5]": {"system": "bone marrow derived macrophages infected with Influenza H1N1", "type": "cell-based"}, "[6]": {"system": "type I IFN signaling in BMDMs", "type": "cell-based, mouse"}, "[7]": {"system": "epithelial proliferation", "experiment": "Crypt height and epithelial proliferation in mice", "type": "in vivo", "details": "VNAM 2 weeks, then 200 mM desaminotyrosine in drinking water", "protocol": "FIG. 13 depicts an experimental scheme of mice treated with VNAM for 2 weeks and then give +/−200 mM desaminotyrosine in the drinking water for 1 week. After 1 week, the mice were continued on +/−200 mM desaminotyrosine and then treated with +/−1 mg/kg polyIC intraperitoneally once per day for 4 days and then sacrificed 1 day later.\n(FIG. 14A, FIG. 14B, FIG. 14C, and FIG. 14D) Representative images of the crypt height for control (FIG. 14A), polyIC (FIG. 14B), deasminotyrosine, (FIG. 14C), and desaminotyrosine+polyIC (FIG. 14D) treated mice. FIG. 14E depicts a graph quantifying the crypt height after the various treatments relative to the control treated mice.\nTo examine the effects of desaminotyrosine on epithelial proliferation, mice were treated with and without antibiotics for 2 weeks and then with or without desaminotyrosine for […] and with or without polyIC (FIG. 13)."}, "[8]": {"system": "dextran sodium sulfate (DSS) induced colitis", "type": "in vivo", "details": "antibiotic treated mice, 2.5% DSS"}, "[9]": {"experiment": "Barrier function: 4 kD dextran (FD4) in serum after gavage", "type": "in vivo, mice", "details": "VNAM 2 weeks then 200 mM desaminotyrosine 1 week in drinking water", "protocol": "FIG. 17A depicts a graph quantifying the amount of damaged area following treatment with DSS +/−desaminotyrosine. FIG. 17B depicts a graph dextrain-FD4 measured in the serum of mice treated with VNAM for 2 weeks and then +/−200 mM of desaminotyrosine for 1 week in the drinking water. 4 kD Dextran was administered by gavage and serum collected 4 hours post-gavage."}, "[10]": {"system": "influenza A/WSN/33 (rWSN) H1N1 virus", "details": "mouse, in vivo"}}, "note": "Entries after “also recorded” stand apart in the source; their conditions may differ.", "data": [{"smiles": "O=C(O)CCc1ccc(O)cc1", "note": "[desaminotyrosine, 3-(4-hydroxyphenyl)propanoic acid]", "values": [{"measurement": "ISRE reporter activity (fold increase in luminescence), type I IFN signaling", "setting": "[1]; with polyIC co-stimulation", "value": "enhanced type I IFN signaling in a dose-dependent manner"}, {"measurement": "ISRE reporter activity (fold increase in luminescence), type I IFN signaling", "setting": "[1]; with type I IFN (IFN-β) co-stimulation", "value": "enhanced type I IFN signaling in a dose-dependent manner"}, {"measurement": "type I IFN activity in the serum", "setting": "[2]", "value": "increased type I IFN activity in the serum"}, {"measurement": "protection (survival)", "setting": "[3]", "value": "protected"}, {"measurement": "protection (survival)", "setting": "[4]", "value": "protected"}, {"measurement": "influenza RNA in bone marrow derived macrophages", "setting": "[5]; 24 hours pretreatment (100 μM), then infection MOI-2 48 hours, IFN/Ifnar-dependent", "value": "decreased influenza RNA; also recorded: depleted"}, {"measurement": "ISG transcripts (Oas1, IP-10) after in vitro influenza infection", "setting": "[5]; pretreated BMDMs, Ifnar-dependent", "value": "increased ISG transcripts"}, {"measurement": "polyIC and type I IFN expression of IP-10", "setting": "[6]; BMDMs from Mavs−/− mice", "value": "still enhanced"}, {"measurement": "IP-10 expression", "setting": "[6]; BMDMs from Stat1−/− mice, polyIC or type I IFN with desaminotyrosine", "value": "not enhanced"}, {"measurement": "ISG transcript abundance (IP-10)", "setting": "[6]; wild-type BMDMs, combined with either polyIC or type I IFN", "value": "increased"}, {"measurement": "crypt height", "setting": "[7]", "value": "increased crypt height"}, {"measurement": "epithelial proliferation", "setting": "[7]; alone", "value": "increased; also recorded: stimulated epithelia proliferation in the small intestine alone"}, {"measurement": "response to DSS injury (epithelial proliferation, crypt preservation, damage)", "setting": "[8]", "value": "promoted epithelial profliferation and crypt preservation; also recorded: rescues DSS damage"}, {"measurement": "damaged area of the distal colon after DSS treatment", "setting": "[8]; with desaminotyrosine (control mice ~90%)", "value": "~8", "unit": "%"}, {"measurement": "barrier function (dextran-FD4 in serum 4 hours post-gavage)", "setting": "[9]", "value": "no effect on barrier function; also recorded: Not significant"}, {"measurement": "airway epithelial damage and apoptosis (H+E, cleaved caspase 3)", "setting": "[10]", "value": "greater airway epithelial damage and apoptosis were observed in control lungs"}, {"measurement": "desaminotyrosine mediated protection (survival)", "setting": "[10]", "value": "abolished"}, {"measurement": "phenotypes associated with antibiotic treatment (morbidity and mortality)", "setting": "[10]", "value": "recused the phenotypes associated with antibiotic treatment"}, {"measurement": "viral RNA in the lungs (matrix, qRT-PCR)", "setting": "[10]", "value": "less viral RNA was found in the lungs"}]}, {"smiles": "Cc1ncc([N+](=O)[O-])n1CCO", "note": "[metronidazole, reference compound]", "values": [{"measurement": "influenza associated-mortality", "setting": "[10]", "value": "enhanced influenza associated-mortality"}]}, {"smiles": "CN[C@H](CC(C)C)C(=O)N[C@H]1C(=O)N[C@@H](CC(N)=O)C(=O)N[C@H]2C(=O)N[C@H]3C(=O)N[C@H](C(=O)N[C@H](C(=O)O)c4cc(O)cc(O)c4-c4cc3ccc4O)[C@H](O)c3ccc(c(Cl)c3)Oc3cc2cc(c3O[C@@H]2O[C@H](CO)[C@@H](O)[C@H](O)[C@H]2O[C@H]2C[C@](C)(N)[C@H](O)[C@H](C)O2)Oc2ccc(cc2Cl)[C@H]1O", "note": "[vancomycin, reference compound]", "values": [{"measurement": "influenza associated-mortality", "setting": "[10]", "value": "enhanced influenza associated-mortality"}]}]}
